pKi: −log10 of the molar value.
Columns and labels:
σ-1 receptors = biological target: T1, σ-1 receptors (Rattus norvegicus, UniProt Q9R0C9); test: Growth of NGF-induced neurite outgrowths in PC12 cells (agonist/antagonist profile); format: cell-based; settings: FIG. 6
T1 construct: performed on rat pheochromocytoma cells (PC12 cells); endogenous in cells; host or cells: PC12 rat pheochromocytoma cells
Procedure: Evaluation of the growth of neurite outgrowths induced by neuronal growth factor (NGF).
Evaluation of the growth of NGF-induced neurite outgrowths was performed on rat pheochromocytoma cells (PC12 cells), conventionally used as a model of neuronal study.
This method constitutes a reliable model for evaluating the agonist/antagonist profile of low molecular weight compounds on the o receptors. In particular, it has been reported that σ-1 agonists potentiate the growth of NGF-induced neurite outgrowths in PC12 cells. In contrast, σ-1 antagonists oppose the action of the agonists, leading to a reduction in NGF-induced growth (Rossi D. et al., “identification of a potent and selective σ1 receptor agonist potentiating NGF-induced neurite outgrowth in PC12 cells”, Bioorg. Med. Chem. 2011, 19, 6210-6224).
The cell culturing PC12 cells, the method for quantifying the growth of neurite outgrowths and the cytotoxicity test were performed as described by Rossi D. et al. in Bioorg. Med. Chem. 2011 cited above.
Statistical analysis of the data obtained was performed using the two-way analysis of variants (ANOVA) method and the Tukey post-hoc test. Values of p<0.05 were considered as being statistically significant.
The results, expressed as the mean value ±standard error of mean (SEM), represent the percentage of cells showing neurite growth. […]

[1] = In vitro metabolic stability in rat plasma; format: in vitro ADME; settings: 37° C., FIG. 7(A)
Procedure: (§1) The metabolic stability studies were performed using biological matrices (plasma, blood and S9 fraction of liver) obtained from various animal species.
(§2) The biological matrices and the analysis method were arranged according to the process described by Rossi D. et al. in “Identification of RC-33 as a potent and selective al receptor agonist potentiating NGF-induced neurite outgrowth in PC12 cells. Part 2: g -scale synthesis, physicochemical characterization and in vitro metabolic stability” (Bioorg. Med. Chem. 2013, 21, 2577-2586).
(§3) For each biological matrix, suitable solutions were prepared to perform the test, as described below.
(§4) 10 μL of a stock solution of compound 1 in dimethyl sulfoxide (DMSO) were incubated with each matrix (total reaction volume 1 mL) in a mixer thermostatically maintained at 37° C. for […]. 50 μL aliquots were taken from each reaction mixture and sampled in duplicate at 5, 10, 15, 30, 60, 120 and 240 minutes to determine the reaction kinetics. […] The supernatant was analysed by means of an Acquity Waters ultra-fast liquid chromatography system, interfaced with a photodiode array detector (UPLC/UV/PAD) to obtain the concentration of the test compound at each of the said times. […]
(§5) The results, obtained from three independent experiments and expressed as the mean value ±standard deviation (SD), are given in FIGS. 8 and 9.

[2] = In vitro metabolic stability in dog plasma; format: in vitro ADME; settings: 37° C., FIG. 7(A)
Procedure: as §1, §2, §3, §4, §5

[3] = In vitro metabolic stability in human plasma; format: in vitro ADME; settings: 37° C., FIG. 7(A)
Procedure: as §1, §2, §3, §4, §5

[4] = In vitro metabolic stability in mouse blood; format: in vitro ADME; settings: 37° C., FIG. 7(B)
Procedure: as §1, §2, §3, §4, §5

[5] = In vitro metabolic stability in rat blood; format: in vitro ADME; settings: 37° C., FIG. 7(B)
Procedure: as §1, §2, §3, §4, §5

[6] = In vitro metabolic stability in S9 fraction of rat liver; format: in vitro ADME
Procedure: as §1, §2, §3, §4, §5

[7] = In vitro metabolic stability in S9 fraction of human liver; format: in vitro ADME
Procedure: as §1, §2, §3, §4, §5

[8] = In vitro metabolic stability, overall conclusion over biological matrices; format: in vitro ADME, various animal species
Procedure: as §1, §2, §3, §4, §5

male ICR mice = test: Formalin test (animal model of inflammatory pain); format: in vivo, mouse; settings: intraperitoneal, even at a dose of 1 mg/kg, 30 min before 2% formalin, FIG. 9
Procedure: The formalin test is an animal model of inflammatory pain widely used and known in the literature.
32 male ICR mice weighing 25 grams were divided into 4 groups of 8 mice each.
The vehicle alone, which consisted of a mixture of dimethyl sulfoxide (DMSO), castor oil Cremophor® EL (BASF) and distilled water, in a 10/10/80 ratio, was administered to the control group (CTR).
Compound 1 was dissolved in the same vehicle and administered at the following doses: • group 1, 1 mg/kg; • group 2, 10 mg/kg; and • group 3, 20 mg/kg.
All the administrations took place by intraperitoneal injection. Thirty minutes after the administration, all the mice were subjected to an injection with 20 uL of a 2% formalin solution subcutaneously, into a paw.
The injection of formalin induces a two-phase nociceptive response, in other words, within the first 5-10 minutes of the administration of formalin, the first nociceptive phase is manifested, followed by a phase of quiescence and by the second nociceptive phase which is manifested 20-30 minutes after the administration of formalin.
The nociceptive response was recorded by evaluating the time that each mouse spent licking or biting its paw which received the injection. […]

σ-1 receptor = σ-1 receptor (Cavia porcellus, UniProt Q60492); test: biochemical
σ-1 receptor, sequence (Q60492 whole entry): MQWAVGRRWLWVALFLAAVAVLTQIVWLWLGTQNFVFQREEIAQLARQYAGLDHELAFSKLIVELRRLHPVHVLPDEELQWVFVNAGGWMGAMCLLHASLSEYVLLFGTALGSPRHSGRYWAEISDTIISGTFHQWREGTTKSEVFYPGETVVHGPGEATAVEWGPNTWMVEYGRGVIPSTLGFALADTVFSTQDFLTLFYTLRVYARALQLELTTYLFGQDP
Text: The IC50 values obtained from three independent experiments were transformed into the respective affinity constants (Ki), using the Cheng-Prusoff equation.

T1 sequence (Q9R0C9 whole entry): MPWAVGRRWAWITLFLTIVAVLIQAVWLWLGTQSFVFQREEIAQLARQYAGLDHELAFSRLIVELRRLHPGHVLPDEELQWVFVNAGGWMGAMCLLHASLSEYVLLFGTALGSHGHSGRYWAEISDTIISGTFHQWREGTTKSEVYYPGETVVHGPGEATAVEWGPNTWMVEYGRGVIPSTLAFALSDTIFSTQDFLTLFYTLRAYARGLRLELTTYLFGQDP

Row | SMILES | percentage of cells with growth of neurite outgrowths (σ-1 receptors; reference group (PRE) relative to control group (NGF)) | effect on agonist-potentiated growth of NGF-induced neurite outgrowths (σ-1 receptors; σ-1 agonist plus 2.5 μM of compound (group A)) | metabolization in rat plasma [1] | metabolization in dog plasma [2] | metabolization in human plasma [3] | metabolization in mouse blood [4] | metabolization in rat blood [5] | metabolization in S9 fraction of rat liver ([6]; absence of NADPH, FIG. 8(A)) | metabolization in S9 fraction of rat liver ([6]; presence of NADPH, FIG. 8(B)) | metabolization in S9 fraction of human liver ([7]; absence of NADPH, FIG. 8(A)) | metabolization in S9 fraction of human liver ([7]; presence of NADPH, FIG. 8(B)) | in vitro metabolic stability [8] | reduction of inflammatory pain (time spent licking or biting the paw) (male ICR mice) | pKi (σ-1 receptor)
1 | Cl.O=C(OCCN1CCOCC1)C1(c2ccccc2)CCCCC1 [PRE, 2-(4-morpholinoethyl)-1-phenylcyclohexanecarboxylate hydrochloride, reference compound] | increased significantly |  |  |  |  |  |  |  |  |  |  |  |  | 
2 | OCC(CCN1CCCCC1)c1ccc(-c2ccccc2)cc1 (centres unmarked) [Compound 1, 4-(N-piperidinyl)-2-(4-diphenyl)butanol] |  | appreciably opposed the effect of the agonist compound | insignificant | insignificant | insignificant | insignificant | insignificant | insignificant | substantial metabolization | insignificant | substantial metabolization | high | effective in reducing inflammatory pain | 8.21

Reference: patent publication US20170015640A1, “USE OF ARYLALKANOLAMINES AS SIGMA-1 RECEPTOR ANTAGONISTS” (Università degli studi di Pavia, priority 2014, published 2017)
